{"source": "ChEMBL document CHEMBL5505997", "about": "“Synthesis and biological evaluation of novel peptidomimetic inhibitors of the coronavirus 3C-like protease” (Eur J Med Chem, 2024)", "key": {"[1]": {"system": "Human coronavirus OC43", "assay": "Antiviral activity against Human coronavirus OC43 infected in Vero cells assessed as reduction in viral yield preincubated with virus for 1 hr followed by washout and compound treatment and measured after 3 days by qRT-PCR analysis", "format": "functional, organism-based", "details": "Betacoronavirus 1, Vero; for EC90: 72 h, time 3 day"}, "[2]": {"system": "CCRF-CEM", "assay": "(§1) Cytotoxicity against human CEM cells assessed as reduction in cell viability", "format": "toxicity, cell-based", "details": "ccrf-cem"}, "[3]": {"assay": "Cytotoxicity against human PBMC cells assessed as reduction in cell viability", "format": "toxicity, cell-based"}, "[4]": {"assay": "Cytotoxicity against African green monkey Vero cells assessed as reduction in cell viability", "format": "toxicity, cell-based", "details": "chlorocebus sabaeus"}, "[5]": {"system": "SARS-CoV-2", "assay": "Antiviral activity against SARS-CoV-2 infected in Vero cells assessed as reduction in viral yield measured after 48 hrs by qRT-PCR analysis", "format": "functional, organism-based", "details": "Severe acute respiratory syndrome coronavirus 2, Vero; for EC50: 48 h; for EC90: time 48 hrs"}, "[6]": {"system": "Huh-7", "assay": "(§2) Cytotoxicity against human Huh-7 cells assessed as reduction in cell viability", "format": "toxicity, cell-based", "details": "huh-7"}, "[7]": {"system": "SARS-CoV-2", "assay": "Antiviral activity against SARS-CoV-2 infected in human Caco-2 cells assessed as reduction in viral yield measured after 72 hrs by qRT-PCR analysis", "format": "functional, organism-based, Severe acute respiratory syndrome coronavirus 2", "details": "for EC90: Severe acute respiratory syndrome coronavirus 2, Caco-2, time 72 hrs"}, "[8]": {"assay": "as §1", "format": "toxicity, cell-based, CCRF-CEM", "details": "CEM (CCRF-CEM) cells"}, "[9]": {"assay": "Cytotoxicity against human Caco-2 cells assessed as reduction in cell viability", "format": "toxicity, cell-based", "details": "Caco-2 cells"}, "[10]": {"assay": "Cytotoxicity against human Calu-3 cells assessed as reduction in cell viability", "format": "toxicity, cell-based", "details": "Calu-3 cells"}, "[11]": {"system": "SARS-CoV-2", "assay": "Antiviral activity against wild type SARS-CoV-2 Omicron BA.1 infected in HEK293T cells measured after 48 hrs by Nano-Glo luciferase assay", "format": "functional, organism-based", "details": "Severe acute respiratory syndrome coronavirus 2, Omicron BA.1, HEK-293T"}, "[12]": {"system": "SARS-CoV-2", "assay": "Antiviral activity against wild type SARS-CoV-2 WA1 infected in HEK293T cells measured after 48 hrs by Nano-Glo luciferase assay", "format": "functional, organism-based", "details": "Severe acute respiratory syndrome coronavirus 2, WA1, HEK-293T"}, "[13]": {"system": "SARS-CoV-2", "assay": "Antiviral activity against SARS-CoV-2 infected in human Calu-3 cells assessed as reduction in viral yield measured after 72 hrs by qRT-PCR analysis", "format": "functional, organism-based, Severe acute respiratory syndrome coronavirus 2", "details": "for EC90: Severe acute respiratory syndrome coronavirus 2, Calu-3, time 72 hrs"}, "[14]": {"system": "SARS-CoV-2", "assay": "Antiviral activity against SARS-CoV-2 hCoV-19/USA/GA-EHC-2811C/2021 (Omicron B.1.1.529) infected in human Calu-3 cells assessed as reduction in viral yield measured after 48 hrs by qRT-PCR analysis", "format": "functional, organism-based", "details": "Severe acute respiratory syndrome coronavirus 2, hCoV-19/USA/GA-EHC-2811C/2021 (Omicron B.1.1.529); for EC50: Calu-3, 48 h; for EC90: Calu-3, time 48 hrs"}, "[15]": {"system": "SARS-CoV-2", "assay": "Antiviral activity against SARS-CoV-2 hCoV-19/USA-WA1/2020 Washington strain infected in Normal human bronchial/tracheal epithelial cells cultured in air-liquid interface media assessed as reduction in viral yield pretreated with compound followed by viral infection for 4 hrs post washout and measured 3 days after virus removal by qRT-PCR analysis", "format": "functional, organism-based", "details": "Severe acute respiratory syndrome coronavirus 2, hCoV-19/USA-WA1/2020 Washington, Epithelial cell"}, "[16]": {"assay": "as §2", "format": "toxicity, cell-based", "details": "Huh-7 cells"}}}
{"smiles": "CC(C)C[C@H](NC(=O)[C@H](Cc1cccc2ccccc12)NC(=O)OCc1ccccc1)C(=O)N[C@H](C=O)Cn1ccnn1", "values": [{"measurement": "EC50", "setting": "[1]", "result": 53.5, "unit": "µM"}, {"measurement": "EC90", "setting": "[1]", "result": 99, "unit": "µM"}, {"measurement": "CC50", "setting": "[2]", "result": 25.3, "unit": "µM"}, {"measurement": "CC50", "setting": "[3]; pbmc", "result": 35.7, "unit": "µM"}, {"measurement": "CC50", "setting": "[4]; vero", "result": 35.7, "unit": "µM"}, {"measurement": "EC50", "setting": "[5]", "result": 4.7, "unit": "µM"}, {"measurement": "EC90", "setting": "[5]", "result": 9.5, "unit": "µM"}, {"measurement": "CC50", "setting": "[6]", "result": 25.3, "unit": "µM"}]}
{"smiles": "CC(C)C[C@H](NC(=O)[C@H](Cc1cccc2ccccc12)NC(=O)c1cc(C(F)(F)F)on1)C(=O)N[C@H](C=O)C[C@@H]1CCCNC1=O", "values": [{"measurement": "EC50", "setting": "[1]", "result": 0.7, "unit": "µM"}, {"measurement": "EC90", "setting": "[1]", "result": 1, "unit": "µM"}, {"measurement": "CC50", "setting": "[2]", "result": 20.3, "unit": "µM"}, {"measurement": "CC50", "setting": "[3]; pbmc", "result": 49.9, "unit": "µM"}, {"measurement": "CC50", "setting": "[4]; vero", "result": 49.9, "unit": "µM"}, {"measurement": "EC50", "setting": "[5]", "result": 6.1, "unit": "µM"}, {"measurement": "EC90", "setting": "[5]", "result": 9.9, "unit": "µM"}, {"measurement": "CC50", "setting": "[6]", "result": 42.5, "unit": "µM"}]}
{"smiles": "Cc1ccsc1C(=O)N[C@@H](Cc1cccc2ccccc12)C(=O)N[C@@H](CC(C)C)C(=O)N[C@H](C=O)C[C@@H]1CCCNC1=O", "values": [{"measurement": "EC50", "setting": "[1]", "result": 0.3, "unit": "µM"}, {"measurement": "EC90", "setting": "[1]", "result": 0.8, "unit": "µM"}, {"measurement": "CC50", "setting": "[2]", "result": 16.3, "unit": "µM"}, {"measurement": "CC50", "setting": "[3]; pbmc", "result": 51.5, "unit": "µM"}, {"measurement": "CC50", "setting": "[4]; vero", "result": 53.1, "unit": "µM"}, {"measurement": "EC50", "setting": "[5]", "result": 2.2, "unit": "µM"}, {"measurement": "EC90", "setting": "[5]", "result": 4.8, "unit": "µM"}, {"measurement": "CC50", "setting": "[6]", "result": 35.1, "unit": "µM"}]}
{"smiles": "CC(C)C[C@H](NC(=O)[C@H](Cc1cccc2ccccc12)NC(=O)OCc1ccccc1)C(=O)N[C@H](/C=C(\\C#N)C(N)=O)C[C@@H]1CCCNC1=O", "values": [{"measurement": "EC50", "setting": "[1]", "result": 0.9, "unit": "µM"}, {"measurement": "EC90", "setting": "[1]", "result": 7, "unit": "µM"}, {"measurement": "CC50", "setting": "[2]", "result": 29, "unit": "µM"}, {"measurement": "CC50", "setting": "[3]; pbmc", "result": "> 100", "unit": "µM"}, {"measurement": "CC50", "setting": "[4]; vero", "result": "> 100", "unit": "µM"}, {"measurement": "EC50", "setting": "[5]", "result": "> 10", "unit": "µM"}, {"measurement": "EC90", "setting": "[5]", "result": "> 10", "unit": "µM"}, {"measurement": "CC50", "setting": "[6]", "result": 29, "unit": "µM"}]}
{"smiles": "CC(C)(C)[C@H](NC(=O)C(F)(F)F)C(=O)N1C[C@H]2[C@@H]([C@H]1C(=O)N[C@H](C#N)C[C@@H]1CCNC1=O)C2(C)C", "values": [{"measurement": "EC50", "setting": "[1]", "result": 0.2, "unit": "µM"}, {"measurement": "EC90", "setting": "[1]", "result": 0.3, "unit": "µM"}, {"measurement": "EC90", "setting": "[7]", "result": 0.3, "unit": "µM"}, {"measurement": "CC50", "setting": "[8]", "result": "> 100", "unit": "µM"}, {"measurement": "CC50", "setting": "[9]", "result": "> 100", "unit": "µM"}, {"measurement": "CC50", "setting": "[10]", "result": "> 100", "unit": "µM"}, {"measurement": "CC50", "setting": "[3]; PBMC cells", "result": "> 100", "unit": "µM"}, {"measurement": "EC50", "setting": "[11]", "result": 0.11, "unit": "µM"}, {"measurement": "CC50", "setting": "[4]; Vero cells", "result": "> 100", "unit": "µM"}, {"measurement": "EC50", "setting": "[12]", "result": 0.034, "unit": "µM"}, {"measurement": "EC50", "setting": "[13]; Severe acute respiratory syndrome coronavirus 2, Calu-3, 72 h", "result": 1.9, "unit": "µM"}, {"measurement": "EC90", "setting": "[13]", "result": 7.6, "unit": "µM"}, {"measurement": "EC50", "setting": "[14]", "result": 0.7, "unit": "µM"}, {"measurement": "EC90", "setting": "[14]", "result": 5.3, "unit": "µM"}, {"measurement": "EC50", "setting": "[5]", "result": 3.7, "unit": "µM"}, {"measurement": "EC90", "setting": "[5]", "result": 5.6, "unit": "µM"}, {"measurement": "EC50", "setting": "[15]", "result": 0.03, "unit": "µM"}, {"measurement": "EC90", "setting": "[15]", "result": 0.2, "unit": "µM"}, {"measurement": "CC50", "setting": "[16]", "result": "> 100", "unit": "µM"}]}
{"smiles": "CCC(CC)COC(=O)[C@H](C)N[P@](=O)(OC[C@H]1O[C@@](C#N)(c2ccc3c(N)ncnn23)[C@H](O)[C@@H]1O)Oc1ccccc1", "values": [{"measurement": "EC50", "setting": "[1]", "result": 0.01, "unit": "µM"}, {"measurement": "EC90", "setting": "[1]", "result": 0.03, "unit": "µM"}, {"measurement": "EC50", "setting": "[7]; Severe acute respiratory syndrome coronavirus 2, Caco-2, 72 h", "result": 0.03, "unit": "µM"}, {"measurement": "EC90", "setting": "[7]", "result": 0.2, "unit": "µM"}, {"measurement": "CC50", "setting": "[2]", "result": 11.2, "unit": "µM"}, {"measurement": "CC50", "setting": "[9]", "result": "> 100", "unit": "µM"}, {"measurement": "CC50", "setting": "[10]", "result": "> 100", "unit": "µM"}, {"measurement": "CC50", "setting": "[3]; pbmc", "result": 4.9, "unit": "µM"}, {"measurement": "EC50", "setting": "[11]", "result": 0.014, "unit": "µM"}, {"measurement": "CC50", "setting": "[4]; Vero cells", "result": "> 100", "unit": "µM"}, {"measurement": "EC50", "setting": "[12]", "result": 0.01, "unit": "µM"}, {"measurement": "EC90", "setting": "[13]", "result": 0.7, "unit": "µM"}, {"measurement": "EC50", "setting": "[14]", "result": 0.2, "unit": "µM"}, {"measurement": "EC90", "setting": "[14]", "result": 0.6, "unit": "µM"}, {"measurement": "EC50", "setting": "[5]", "result": 3.2, "unit": "µM"}, {"measurement": "EC90", "setting": "[5]", "result": 4.7, "unit": "µM"}, {"measurement": "EC50", "setting": "[15]", "result": 0.5, "unit": "µM"}, {"measurement": "EC90", "setting": "[15]", "result": 0.9, "unit": "µM"}, {"measurement": "CC50", "setting": "[6]", "result": 1.4, "unit": "µM"}]}
{"smiles": "CC(C)C[C@H](NC(=O)[C@H](Cc1cccc2ccccc12)NC(=O)OCc1ccccc1)C(=O)N[C@H](C#N)C[C@@H]1CCCNC1=O", "values": [{"measurement": "EC50", "setting": "[1]", "result": 0.7, "unit": "µM"}, {"measurement": "EC90", "setting": "[1]", "result": 5.1, "unit": "µM"}, {"measurement": "CC50", "setting": "[2]", "result": "> 100", "unit": "µM"}, {"measurement": "CC50", "setting": "[3]; pbmc", "result": "> 100", "unit": "µM"}, {"measurement": "CC50", "setting": "[4]; vero", "result": "> 100", "unit": "µM"}, {"measurement": "EC50", "setting": "[5]", "result": "> 10", "unit": "µM"}, {"measurement": "EC90", "setting": "[5]", "result": "> 10", "unit": "µM"}, {"measurement": "CC50", "setting": "[6]", "result": "> 100", "unit": "µM"}]}
